# Experimental data from US8759256B2, “Herbicide composition comprising herbicide compound in acid form and acidifying agent” (priority 2001, dated 2014).
# Experiments:
# [1] = cited from earlier work; for pKas: Table 1, acidic herbicide; for pKa: imidazolinone acids
# wheat = assay: greenhouse visual injury rating, Examples 9-10, wheat; format: in vivo; conditions: Two Week
# Source text: (§1) Each treatment in the experiment was replicated three times. An untreated control was also included in the experiment.
# (§2) These treatments were compared to PCC-1190 and PCC-1189 without the addition of an acidifying agent, a standard imidazolinone acid formulation (PURSUIT and SCEPTER), and an untreated control.
# (§3) For the experiments, greenhouse flats 26 cm by 6 cm deep were filled with Metro Mix 350 potting soil. The soil was pre-wetted before filling the flats. Six furrows were pressed into the soil in each flat using a custom designed form. Corn, tame oats, velvet leaf (not used in Example 10), wheat, pinto beans, and sunflower were planted in each tray. One species was planted in each of the six rows in each flat. Five seeds were planted in each row of corn, pinto bean, and sunflower. Six seeds were planted in each row of tame oat and wheat. Because velvet leaf seeds were so small, the seeds were sprinkled in each row and the number of such seeds were not counted. Each flat was covered with 2 cm of Metro Mix 350 potting soil and placed in the greenhouse. Greenhouse conditions were 28/20 C day/night temperatures and 16/8 h day/night periods. Light was supplemented with 400 W sodium halide lights. The plants were allowed to germinate and grow in the greenhouse for 2 weeks and then treated. Treatments were mixed using serial dilutions. Each dilution reduced the herbicide rate by one half. All acidifying agents (e.g., PCC-I174, LI-136, sulfuric acid, and phosphoric acid) were calculated and mixed to provide acid concentrations of 0.9%.
# (§4) At the time of treatment, crops were at the following stages: corn—2 to 3 lf, tame oat—2 to 3 lf, velvet leaf 2 if (not used in Example 10), pinto bean—2-3 lf, wheat—4 to 5 lf, and sunflower-2 lf. Plants were treated using a greenhouse track sprayer equipped with an 8001E nozzle and calibrated to deliver 140 L ha-1 at the height of the crop canopy. Each treatment was simultaneously applied to three trays of plants, one for each replicate. After treatment, the plants were left in the head house to dry and then transferred to the greenhouse. Plants in each treatment were evaluated visually for injury 1 week and 2 weeks after treatment.
# (§5) The injury caused by the herbicide treatment was rated visually. […] All the plants of each species in each replication were given a single rating. A rating of 0=no injury—the plants look the same as the untreated. A rating of 100=dead—usually highly necrotic, brown and no chance of producing seed.
# (§6) The ingredients of the herbicide compositions as applied are listed in the following tables, and were diluted with water and used at the rates indicated for herbicide ingredients and acidifying agents.
# sunflower = assay: greenhouse visual injury rating, Examples 9-10, sunflower; format: in vivo; conditions: Two Week
# Source text: as §1, §2, §3, §4, §5, §6
# tame oat = assay: greenhouse visual injury rating, Examples 9-10, tame oat; format: in vivo; conditions: Two Week
# Source text: as §1, §2, §3, §4, §5, §6
# pinto bean = assay: greenhouse visual injury rating, Examples 9-10, pinto bean; format: in vivo; conditions: Two Week
# Source text: as §1, §2, §3, §4, §5, §6
# corn = assay: greenhouse visual injury rating, Examples 9-10, corn; format: in vivo; conditions: Two Week
# Source text: as §1, §2, §3, §4, §5, §6
# [2] = PCC-1189 0.031 LB AE/A + PHOSPHORIC ACID 2 % V/V
# [3] = PCC-1189 0.245 3 AE/A + PHOSPHORIC ACID 2 V/V
# [4] = PCC-1189 0.49 3 AE/A + PHOSPHORIC ACID 2 V/V
# [5] = PCC-1189 .0155 LB AE/A + PHOSPHORIC ACID 2 % V/V
# [6] = PCC-1189 .0613 LB AE/A + PHOSPHORIC ACID 2 % V/V
# [7] = PCC-1189 .1225 LB AE/A + PHOSPHORIC ACID 2 % V/V
# [8] = PCC-1189 0.031 LB AE/A + SULFURIC ACID 2 % V/V
# [9] = PCC-1189 0.245 LB AE/A + SULFURIC ACID 2 % V/V
# [10] = PCC-1189 0.49 LB AE/A + SULFURIC ACID 2 % V/V
# [11] = PCC-1189 .0155 LB AE/A + SULFURIC ACID 2 % V/V
# [12] = PCC-1189 .0613 LB AE/A + SULFURIC ACID 2 % V/V
# [13] = PCC-1189 .1225 LB AE/A + SULFURIC ACID 2 % V/V
molecule,measurement,setting,value
Nc1c(Cl)c(Cl)nc(C(=O)O)c1Cl [Picloram],pKas,[1],2.3
O=P(O)(O)O [PHOSPHORIC ACID],"injury rated visually (0=no injury, 100=dead), Wheat",wheat; [2],0.0
same,"injury rated visually (0=no injury, 100=dead), Wheat",wheat; [3],0.0
same,"injury rated visually (0=no injury, 100=dead), Wheat",wheat; [4],0.0
same,"injury rated visually (0=no injury, 100=dead), Wheat",wheat; [5],0.0
same,"injury rated visually (0=no injury, 100=dead), Wheat",wheat; [6],0.0
same,"injury rated visually (0=no injury, 100=dead), Wheat",wheat; [7],0.0
same,"injury rated visually (0=no injury, 100=dead), Sunflower",sunflower; [2],50.0
same,"injury rated visually (0=no injury, 100=dead), Sunflower",sunflower; [3],60.0
same,"injury rated visually (0=no injury, 100=dead), Sunflower",sunflower; [4],50.0
same,"injury rated visually (0=no injury, 100=dead), Sunflower",sunflower; [5],50.0
same,"injury rated visually (0=no injury, 100=dead), Sunflower",sunflower; [6],40.0
same,"injury rated visually (0=no injury, 100=dead), Sunflower",sunflower; [7],50.0
same,"injury rated visually (0=no injury, 100=dead), Tame Oat",tame oat; [2],0.0
same,"injury rated visually (0=no injury, 100=dead), Tame Oat",tame oat; [3],0.0
same,"injury rated visually (0=no injury, 100=dead), Tame Oat",tame oat; [4],0.0
same,"injury rated visually (0=no injury, 100=dead), Tame Oat",tame oat; [5],0.0
same,"injury rated visually (0=no injury, 100=dead), Tame Oat",tame oat; [6],0.0
same,"injury rated visually (0=no injury, 100=dead), Tame Oat",tame oat; [7],0.0
same,"injury rated visually (0=no injury, 100=dead), Pinto Bean",pinto bean; [2],20.0
same,"injury rated visually (0=no injury, 100=dead), Pinto Bean",pinto bean; [3],30.0
same,"injury rated visually (0=no injury, 100=dead), Pinto Bean",pinto bean; [4],30.0
same,"injury rated visually (0=no injury, 100=dead), Pinto Bean",pinto bean; [5],10.0
same,"injury rated visually (0=no injury, 100=dead), Pinto Bean",pinto bean; [6],30.0
same,"injury rated visually (0=no injury, 100=dead), Pinto Bean",pinto bean; [7],25.0
same,"injury rated visually (0=no injury, 100=dead), Corn",corn; [2],10.0
same,"injury rated visually (0=no injury, 100=dead), Corn",corn; [3],10.0
same,"injury rated visually (0=no injury, 100=dead), Corn",corn; [4],20.0
same,"injury rated visually (0=no injury, 100=dead), Corn",corn; [5],10.0
same,"injury rated visually (0=no injury, 100=dead), Corn",corn; [6],15.0
same,"injury rated visually (0=no injury, 100=dead), Corn",corn; [7],10.0
O=S(=O)(O)O [SULFURIC ACID],"injury rated visually (0=no injury, 100=dead), Wheat",wheat; [8],0.0
same,"injury rated visually (0=no injury, 100=dead), Wheat",wheat; [9],0.0
same,"injury rated visually (0=no injury, 100=dead), Wheat",wheat; [10],10.0
same,"injury rated visually (0=no injury, 100=dead), Wheat",wheat; [11],0.0
same,"injury rated visually (0=no injury, 100=dead), Wheat",wheat; [12],0.0
same,"injury rated visually (0=no injury, 100=dead), Wheat",wheat; [13],0.0
same,"injury rated visually (0=no injury, 100=dead), Sunflower",sunflower; [8],30.0
same,"injury rated visually (0=no injury, 100=dead), Sunflower",sunflower; [9],60.0
same,"injury rated visually (0=no injury, 100=dead), Sunflower",sunflower; [10],80.0
same,"injury rated visually (0=no injury, 100=dead), Sunflower",sunflower; [11],30.0
same,"injury rated visually (0=no injury, 100=dead), Sunflower",sunflower; [12],40.0
same,"injury rated visually (0=no injury, 100=dead), Sunflower",sunflower; [13],40.0
same,"injury rated visually (0=no injury, 100=dead), Tame Oat",tame oat; [8],0.0
same,"injury rated visually (0=no injury, 100=dead), Tame Oat",tame oat; [9],0.0
same,"injury rated visually (0=no injury, 100=dead), Tame Oat",tame oat; [10],10.0
same,"injury rated visually (0=no injury, 100=dead), Tame Oat",tame oat; [11],0.0
same,"injury rated visually (0=no injury, 100=dead), Tame Oat",tame oat; [12],0.0
same,"injury rated visually (0=no injury, 100=dead), Tame Oat",tame oat; [13],0.0
same,"injury rated visually (0=no injury, 100=dead), Pinto Bean",pinto bean; [8],10.0
same,"injury rated visually (0=no injury, 100=dead), Pinto Bean",pinto bean; [9],20.0
same,"injury rated visually (0=no injury, 100=dead), Pinto Bean",pinto bean; [10],30.0
same,"injury rated visually (0=no injury, 100=dead), Pinto Bean",pinto bean; [11],10.0
same,"injury rated visually (0=no injury, 100=dead), Pinto Bean",pinto bean; [12],0.0
same,"injury rated visually (0=no injury, 100=dead), Pinto Bean",pinto bean; [13],10.0
same,"injury rated visually (0=no injury, 100=dead), Corn",corn; [8],20.0
same,"injury rated visually (0=no injury, 100=dead), Corn",corn; [9],20.0
same,"injury rated visually (0=no injury, 100=dead), Corn",corn; [10],20.0
same,"injury rated visually (0=no injury, 100=dead), Corn",corn; [11],10.0
same,"injury rated visually (0=no injury, 100=dead), Corn",corn; [12],10.0
same,"injury rated visually (0=no injury, 100=dead), Corn",corn; [13],10.0
CC(C)C1(C)N=C(c2nc3ccccc3cc2C(=O)O)NC1=O (centres unmarked) [Imazaquin],pKas,[1],3.8
same,pKa,[1],approximately 3.8
Imazamethbenz,pKas,[1],2.9
same,pKa,[1],approximately 2.9
CCc1cnc(C2=NC(C)(C(C)C)C(=O)N2)c(C(=O)O)c1 (centres unmarked) [Imazethapyr],pKas,[1],3.9
same,pKa,[1],approximately 3.9
"O=C(O)CCCOc1ccc(Cl)cc1Cl [2,4-DB]",pKas,[1],4.8
